In experiment [1] the test system is colitis provoked by trinitrobenzene sulphonic acid (TNBS). In words: Rat model of colitis provoked by TNBS, 3 days, treatment from Day −1 (CCI-7308). The experiment is classed as in vivo. Particulars: for attenuation of TNBS-induced fall in body weight (% change in body weight at Day 0) / reduction in area of macroscopic colonic injury / reduction in colonic MPO activity / reduction in colon weight / reduction in colonic TNF-α levels: vs CMC group; for reduction in area of macroscopic colonic injury: 72 h after TNBS. From the text:
In the study, colonic macroscopic injury has been assessed, as has colonic weight as a reflection of colonic oedema, along with determination of MPO activity (Bradley et al, 1982) as an index of white cell infiltration for the evaluation of tissue injury. The methods and protocol used were substantially similar to those in Example 39, with some differences described below. TNBS Challenge—Male Wistar rats (270-330 g) were randomised into groups of 10-11 before commencement of the study. The following primary parameters were measured in the study: In addition, the weight of the colonic segment was assessed as an indirect and non-specific marker of oedema. The body weight of the animals was also determined and expressed as % change from the day of challenge. Treatments. All challenged groups were dosed orally twice daily from Day −1. The groups for study were: Colon homogenates for cytokine measurements. […] Tissue homogenates were lysed for 30 min. on ice, and then centrifuged (10 min., 14, 000×g). The aliquots of the supernatant were stored at −20° C. until use (Ten Hove et al., 2001). Tumour Necrosis Factor-a Activity. The TNF-α levels were determined with quantitative TNF-α solid-phase Enzyme Linked ImmunoSorbent Assay (ELISA), which is based on the sandwich principle (HyCult biotechnology b. V;. Cat number: […] At the end of the ELISA assay, the samples were measured spectrophotometrically (Benchmark Microplate reader, Bio-Rad Lab; λ=450 nm). The samples were diluted 2 or 4 times with the sample buffer included in the kit. The TNF-α values were expressed as pg/mg protein. This commercially available kit (Hycult Biotechnology b.v. Uden, The Netherlands. Catalogue number: […]

The nature of experiment [2]: Various In Vitro Cell Biology Assays (Example 41, Tables 23-26). Type of experiment: cell-based. The following applies: PBMC, 24 h, IL-1 □ secretion (h) (PBMC), LPS 1 μg/ml, 24 h; 3×10^−6 M; read-out: % Inhibition of Control Values. As to the method:
In each experiment, the respective reference compound was tested concurrently with the test compounds in order to assess the assay suitability. It was tested at several concentrations (for IC50 value determination).
The test compounds were assayed at 3×10^−6 M.
Results. The results are expressed as a percent of control values and as a percent inhibition of control values obtained in the presence of the test compounds.
The IC50 values (concentration causing a half-maximal inhibition of control values) and Hill coefficients (nH) were determined by non-linear regression analysis of the inhibition curves using Hill equation curve fitting, a summary of the data is shown in Table 26. The IC50 value for each reference compound is indicated was determined (data not shown) and was within accepted limits of the historic average ±0.5 log units.

For experiment [3], the system named is chronic colitis provoked by trinitrobenzene sulphonic acid (TNBS). In words: Rat model of chronic colitis provoked by TNBS over 14 days, treatment from Day 1. Type of experiment: in vivo. The following applies: for macroscopic Damage Score / reduction in colon weight / reduction in colonic MPO activity / reduction in colonic TNF-α levels / reduction in colonic lesion area (% of the total area measured): Day 14; for reduction in colon weight / reduction in colonic MPO activity / reduction in colonic TNF-α levels / reduction in colonic lesion area (% of the total area measured) / attenuation of TNBS-induced fall in body weight (% change of body weight at Day −1): vs CMC group; for attenuation of TNBS-induced fall in body weight (% change of body weight at Day −1): over 14 days. From the text:
In the chronic model of colitis, assessment of the colonic inflammation is made 14 days or longer, after the intracolonic challenge with TNBS (Boughton-Smith et al, 1988a, 1988b; Wallace et al, 1989; Rachmilewitz et al, 1989; Wallace and Keenan, 1990; Ameho et al, 1987; Sans et al, 1999; Sun et al, 2001; Maric et al, 2003; Moreels et al, 2004; Gonzalez et al, 2004). This model allows treatment with experimental agents to commence following the establishment of the colonic injury, typically 24 hours after the TNBS challenge (Galvez et al, 2000, Villegas, 2003, Gonzalez et al, 2004). The model should therefore identify the ability of the experimental compounds to accelerate the diminution of the inflammatory response and to promote healing of the colonic lesions. This model thus has relevance additional to the acute model, as the clinical correlate is the therapeutic intervention in patients with existing IBD not in remission or with flare-up, to reduce the crisis. This contrasts with the acute TNBS model where the compounds are administered one or two days prior to challenge, the clinical correlate being the use of prophylactic therapy to prevent flare-up and maintain remission in IBD patients.
In this current study, the low intracolonic challenge concentration of TNBS used in the acute studies was also used for the chronic study over a 14 day period. This concentration and timing was based on the findings from pilot studies where a range of concentrations of TNBS and treatment conditions were evaluated over a 14 day period. […].
The methods and protocol used were substantially similar to those in Example 39-40, with some differences described below.
TNBS Challenge. Male Wistar rats (average body weight, 210 g) were randomised into groups before commencement of the study. In all groups, including the non-challenged and non-treated absolute control group, food was withdrawn for 12 h before TNBS administration (i.e. overnight on Day −1), but the rats were allowed free access to drinking water.
On the morning of the day of challenge (Day 0, between 9.00 and 1 1.00 a.m.), the rats were transiently anaesthetised with ether and the TNBS solution (10 mg in 0.25 ml of 50% ethanol) was instilled approximately 6-8 cm into the colon using a soft plastic catheter inserted in the rat rectum. The rats were allowed to recover with free access to food and drinking water. At the end of the experiment, on the morning of Day 14, between 9.00 and 11.00), the colon was dissected, and the distal 8 cm photographed and immediately processed or stored appropriately for subsequent analyses.
The following primary parameters were measured in the study: macroscopic scoring of distal 8 cm of colon; myeloperoxidase levels in segments of distal 8 cm of colon; TNF-α levels in segments of distal 8 cm of colon.
In addition, the weight of the standard colonic segment was assessed as an indirect and non-specific marker of oedema. The body weight of the animals was also determined each evening of the study, starting on Day-1, and also on the morning of Day 14. The data is shown graphically as the % change from the weight on Day-1, prior to challenge.
Treatments. The TNBS challenged groups for study were: (a) Vehicle control 0.5% carboxy methyl cellulose (CMC) p.o., twice daily from Day; (b) CCI-7506 25 mg/kg, p.o., twice daily from Day 1 (50 mg/kg/day total); (c) CCI-7506 50 mg/kg, p.o., twice daily from Day 1 (100 mg/kg/day total); (d) CCI-7507 12.5 mg/kg, p.o., twice daily from Day 1 (25 mg/kg/day total); (e) CCI-7507 25 mg/kg, p.o., twice daily from Day 1(50 mg/kg/day total); […]; (g) Infliximab 3 mg/kg, single slow i.v. injection, on Day 1 and Day7.
The experimental compounds that were administered orally were given twice a day from Day 1, i.e. 24 h following TNBS administration, for the remainder of the 14 day experimental period. Infliximab was administered by slow i.v. injection of Day 1 and on Day 7. […]

Setting [4] is: 4 mg/kg/day p.o. in divided doses.
The mark [5] stands for this setting: 20 mg/kg/day p.o. in divided doses.
The mark [6] stands for this setting: 100 mg/kg/day p.o. in divided doses.
Setting [7] is: 50 mg/kg/day p.o. in divided doses from Day 1.

Each structure is given as a SMILES string.

Regarding `COc1ccc(-c2nc3ccccc3n2CCCCCB(O)O)cc1` [CCI-7308], the “attenuation of TNBS-induced fall in body weight (% change in body weight at Day 0)” value in experiment [1] (4 mg/kg/day p.o. in divided doses b.i.d.) was “significantly different from the challenged CMC control group on Day 1”; in experiment [1] (20 mg/kg/day p.o. in divided doses b.i.d.) it was “significantly different from the CMC group on Days 1, 2 and 3”; in experiment [1] (100 mg/kg/day p.o. in divided doses b.i.d.), “preventing the fall in body weight on all 3 days post-challenge”. Moreover, the “reduction in area of macroscopic colonic injury” value is recorded as “did not reach significance” in experiment [1] (setting [4]), “statistically significant” in experiment [1] (setting [5]) and “statistically significant” in experiment [1] (setting [6]). Besides, the “reduction in colonic MPO activity” value in experiment [1] (setting [4]), in experiment [1] (setting [5]) and in experiment [1] (setting [6]) was “significant (P<0.001) reduction in colonic MPO levels at all three dose levels” in each case. The “reduction in colon weight” value in experiment [1] (setting [5]) and in experiment [1] (setting [6]) was “statistically significant” throughout. The “reduction in colonic TNF-α levels” value in experiment [1] (setting [5]) and in experiment [1] (setting [6]) was “achieving significance” each time. In experiment [1] (preliminary indication, from comparison of molecular weights), the “relative potency versus sulfasalazine in reducing macroscopic injury” value is on record as approximately 2.5 times. In experiment [2], the inhibition at 3 µM was found to be 68%.
With `N#Cc1ccc2c(ccn2CCCCCB(O)O)c1` [CCI-7506], in experiment [3] (50 mg/kg/day p.o. from Day 1), the “macroscopic Damage Score” value is recorded as “reduced the damage score”, the “reduction in colon weight” value is reported as “caused a significant reduction in the colon weight”, the “reduction in colonic MPO activity” value was “caused a significant fall in the elevated MPO activity” and the “reduction in colonic TNF-α levels” value is reported as “no significant effect on the colonic TNF-α levels”. For the same molecule, in experiment [3] (50 mg/kg/day p.o. from Day 1), the “reduction in colonic lesion area (% of the total area measured)” value (shortened to “reduction … (% of the total area measured)”) was “statistically significant for both doses”. For the same molecule, the “attenuation of TNBS-induced fall in body weight (% change of body weight at Day −1)” value in experiment [3] (setting [7]) was “significantly different from those in the challenged CMC control group on Days 2 to 10 and also on Days 13 and 14”. For the same molecule, in experiment [3] (100 mg/kg/day p.o. from Day 1), the “macroscopic Damage Score” value is “reduced the damage score”, the “reduction in colon weight” value is recorded as “caused a significant reduction in the colon weight”, the “reduction in colonic MPO activity” value is recorded as “caused a significant fall in the elevated MPO activity” and the “reduction in colonic TNF-α levels” value was “did achieve significance”. Further, the “reduction … (% of the total area measured)” value in experiment [3] (100 mg/kg/day p.o. from Day 1) is “statistically significant for both doses”. The “attenuation of TNBS-induced fall in body weight (% change of body weight at Day −1)” value in experiment [3] (100 mg/kg/day p.o. in divided doses from Day 1) is “significantly different from the CMC group on Days 2, 3 and 4”.
`COc1ccc(-c2nc3ccccc3n2CCCCCB(O)O)cc1` [CCI-7507]: in experiment [3] (25 mg/kg/day p.o. from Day 1), the “macroscopic Damage Score” value is “reduced the damage score”; the “reduction in colon weight” value is reported as “significantly reduced the colonic weight of the standard segment at both doses”; the “reduction in colonic MPO activity” value was “significant and dose-dependent fall in the elevated MPO activity at both dose levels”; the “reduction in colonic TNF-α levels” value was “caused a significant reduction in the elevated levels of TNF-α”. Besides, the “reduction … (% of the total area measured)” value in experiment [3] (25 mg/kg/day p.o. from Day 1) is “statistically significant for both doses”. Further, the “attenuation of TNBS-induced fall in body weight (% change of body weight at Day −1)” value in experiment [3] (25 mg/kg/day p.o. in divided doses from Day 1) is “significantly different from that in the CMC challenged group (P<0.05) on Days 2, 3, 4, 8, 9 and 10 post-challenge”. In experiment [3] (50 mg/kg/day p.o. from Day 1), the “macroscopic Damage Score” value is listed as “reduced the damage score”; the “reduction in colon weight” value is “significantly reduced the colonic weight of the standard segment at both doses”; the “reduction in colonic MPO activity” value is “significant and dose-dependent fall in the elevated MPO activity at both dose levels”; the “reduction in colonic TNF-α levels” value is given as “caused a significant reduction in the elevated levels of TNF-α”. The “reduction … (% of the total area measured)” value in experiment [3] (50 mg/kg/day p.o. from Day 1) is recorded as “statistically significant for both doses”. Also, in experiment [3] (setting [7]), the “attenuation of TNBS-induced fall in body weight (% change of body weight at Day −1)” value is on record as “significantly different form the CMC group on all days from Day 2 to 10”.

For orientation: inhibition means the change of the read-out against control, counted positive when it falls.

The values are drawn from patent US20090264384A1, “INDOLE, BENZIMIDAZOLE, AND BENZOLACTAM BORONIC ACID COMPOUNDS, ANALOGS THEREOF AND METHODS OF USE THEREOF” (Nuada, Inc., priority 2004, published 2009).
